Data taken from ChEMBL document CHEMBL5252673, “Development of thiazole-appended novel hydrazones as a new class of α-amylase inhibitors with anticancer assets: an in silico and in vitro approach” (RSC Med Chem, 2023).

Key:
A549 [1] = assay: Antiproliferative activity against human A549 cells assessed as inhibition of cell growth incubated for 48 hrs by MTT assay; type: functional, cell-based; settings: A549, 48 h
MDA-MB-231 = assay: Antiproliferative activity against human MDA-MB-231 cells assessed as inhibition of cell growth incubated for 48 hrs by MTT assay; type: functional, cell-based; settings: MDA-MB-231, 48 h
HCT-116 = assay: Antiproliferative activity against human HCT-116 cells assessed as inhibition of cell growth incubated for 48 hrs by MTT assay; type: functional, cell-based; settings: HCT-116, 48 h
Alpha amylase [2] = biological target: T1, Alpha amylase (Homo sapiens, UniProt P0DUB6); assay: Inhibition of alpha-amylase (unknown origin) using starch as substrate preincubated with substrate for 15 mins followed by compound addition and measured after 15 mins by UV-VIS spectrophotometric analysis
T1 sequence (P0DUB6 whole entry): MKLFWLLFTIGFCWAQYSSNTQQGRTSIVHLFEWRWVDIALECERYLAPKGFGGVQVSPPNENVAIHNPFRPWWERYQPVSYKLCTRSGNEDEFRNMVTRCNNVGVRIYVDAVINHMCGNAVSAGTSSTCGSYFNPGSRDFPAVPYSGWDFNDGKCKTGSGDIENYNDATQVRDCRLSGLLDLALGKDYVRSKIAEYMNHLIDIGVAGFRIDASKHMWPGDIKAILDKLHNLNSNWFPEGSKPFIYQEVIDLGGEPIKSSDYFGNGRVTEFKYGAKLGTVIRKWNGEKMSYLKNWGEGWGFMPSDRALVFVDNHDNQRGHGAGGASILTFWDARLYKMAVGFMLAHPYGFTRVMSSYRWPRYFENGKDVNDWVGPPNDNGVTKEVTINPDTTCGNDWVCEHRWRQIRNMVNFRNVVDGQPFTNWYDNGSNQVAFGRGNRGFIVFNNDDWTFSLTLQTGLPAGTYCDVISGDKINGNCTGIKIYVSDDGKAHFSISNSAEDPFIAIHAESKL

A549 [3] = assay: Induction of ROS in human A549 cells at sub IC50 concentration incubated for 24 hrs by H2DCFDA dye based fluorescence assay (reference value: 33.28%); type: functional
MCF-10A = assay: Cytotoxicity against human MCF-10A assessed as reduction in cell viability upto 10 uM incubated for 48 hrs by MTT assay; type: toxicity, cell-based
[4] = tested on: O=C(N/N=C/c1ccc(Cl)cc1)c1csc(Nc2ccc([N+](=O)[O-])cc2)n1; assay: (§1) Uncompetitive inhibition of alpha-amylase (unknown origin) using starch as substrate assessed as decrease in Km incubated for 30 mins by UV-visible spectrophotometric analysis; settings: Homo sapiens
[5] = tested on: COc1cc(/C=N/NC(=O)c2csc(Nc3ccc([N+](=O)[O-])cc3)n2)ccc1O; assay: as §1; settings: Homo sapiens
[6] = tested on: COc1cc(/C=N/NC(=O)c2csc(Nc3ccc([N+](=O)[O-])cc3)n2)cc(OC)c1OC; assay: as §1; settings: Homo sapiens
[7] = tested on: O=C(N/N=C/c1ccc(O)cc1)c1csc(Nc2ccc([N+](=O)[O-])cc2)n1; assay: as §1; settings: Homo sapiens
[8] = tested on: O=C(N/N=C/c1ccc(Cl)cc1)c1csc(Nc2ccc([N+](=O)[O-])cc2)n1; assay: (§2) Uncompetitive inhibition of alpha-amylase (unknown origin) using starch as substrate assessed as decrease in Vmax incubated for 30 mins by UV-visible spectrophotometric analysis; settings: Homo sapiens
[9] = tested on: COc1cc(/C=N/NC(=O)c2csc(Nc3ccc([N+](=O)[O-])cc3)n2)ccc1O; assay: as §2; settings: Homo sapiens
[10] = tested on: COc1cc(/C=N/NC(=O)c2csc(Nc3ccc([N+](=O)[O-])cc3)n2)cc(OC)c1OC; assay: as §2; settings: Homo sapiens
[11] = tested on: O=C(N/N=C/c1ccc(O)cc1)c1csc(Nc2ccc([N+](=O)[O-])cc2)n1; assay: as §2; settings: Homo sapiens
Alpha amylase [12] = biological target: T1, Alpha amylase; assay: Inhibition of alpha-amylase (unknown origin)
Alpha amylase [13] = biological target: T1, Alpha amylase; assay: Inhibition of alpha-amylase (unknown origin) using starch as substrate incubated for 30 mins by microplate reader analysis
Alpha amylase [14] = biological target: T1, Alpha amylase; assay: Inhibition of alpha-amylase (unknown origin) using p-nitrophenylR-D-maltoside as substrate incubated for 30 mins by […]

IC50 (A549 [1]) | IC50 (MDA-MB-231) | IC50 (HCT-116) | IC50 (Alpha amylase [2]) | Compound | also measured
11.3 µM | 16.1 µM | 13.2 µM | 0.4 µM | COc1ccc(/C=N/NC(=O)c2csc(Nc3ccc(Cl)cc3)n2)cc1 | 
2.97 µM | 3.22 µM | 2.31 µM | 0.43 µM | COc1ccc(Nc2nc(C(=O)N/N=C/c3ccc(OC)c(OC)c3)cs2)cc1 | 
7.88 µM | 6.89 µM | 7.83 µM | 0.47 µM | COc1ccc(/C=N/NC(=O)c2csc(Nc3ccc(OC)cc3)n2)cc1 | 
11.2 µM | 23.2 µM | 7.32 µM | 0.37 µM | O=C(N/N=C/c1ccccc1)c1csc(Nc2ccc([N+](=O)[O-])cc2)n1 | 
3.98 µM | 4.95 µM | 4.99 µM | 0.43 µM | COc1ccc(Nc2nc(C(=O)N/N=C/c3ccc(O)c(OC)c3)cs2)cc1 | 
10.3 µM | 9.32 µM | 12.2 µM | 0.41 µM | COc1ccc(Nc2nc(C(=O)N/N=C/c3ccc(Cl)cc3)cs2)cc1 | 
7.43 µM | 15.7 µM | 5.67 µM | 0.41 µM | O=C(N/N=C/c1ccc(O)cc1)c1csc(Nc2ccc(Cl)cc2)n1 | 
1.99 µM | 4.98 µM | 2.43 µM | 0.24 µM | COc1cc(/C=N/NC(=O)c2csc(Nc3ccc([N+](=O)[O-])cc3)n2)ccc1O | Activity (A549 [3]): 27.19%; Activity (MCF-10A): Non-Toxic
7.99 µM | 9.87 µM | 6.96 µM | 0.5 µM | COc1ccc(Nc2nc(C(=O)N/N=C/c3ccc(O)cc3)cs2)cc1 | 
 |  |  |  | Alpha amylase (Homo sapiens) (from UniProt P0DUB6) | Km [4]: 804 µM; Km [5]: 1030 µM; Km [6]: 1190 µM; Km [7]: 830 µM; Vmax [8]: 1.56 µmol/min; Vmax [9]: 1.81 µmol/min; Vmax [10]: 3.24 µmol/min; Vmax [11]: 0.916 µmol/min
14 µM | > 25 µM | 17.2 µM | 0.39 µM | O=C(N/N=C/c1ccc(Cl)cc1)c1csc(Nc2ccc(Cl)cc2)n1 | 
 |  |  |  | CC(=O)c1sc(N/N=C(/C)c2ccc(Cl)cc2)nc1C | IC50 (Alpha amylase [12]): 4.79 µM
 |  |  |  | NNC(=O)c1csc(N/N=C/c2cccc(Br)c2)n1 | IC50 (Alpha amylase [12]): 31 µg/mL
 |  |  |  | Fc1cccc(-c2nc3scc(-c4ccc(Br)cc4)n3n2)c1 | IC50 (Alpha amylase [13]): 3.2 µM
12 µM | 14.5 µM | 10.1 µM | 0.41 µM | COc1cc(/C=N/NC(=O)c2csc(Nc3ccccc3)n2)ccc1O | 
 |  |  |  | COc1cc(-c2nc3ccccc3[nH]2)ccc1OCC(=O)Nc1ccccc1C | IC50 (Alpha amylase [12]): 11 µM
8.97 µM | 14 µM | 4.65 µM | 0.32 µM | COc1ccc(/C=N/NC(=O)c2csc(Nc3ccc([N+](=O)[O-])cc3)n2)cc1 | 
9.86 µM | 14.9 µM | 12.2 µM | 0.45 µM | O=C(N/N=C/c1ccc(O)c(O)c1)c1csc(Nc2ccccc2)n1 | 
8.42 µM | 7.77 µM | 9.48 µM | 0.43 µM | O=C(N/N=C/c1cccc(F)c1)c1csc(Nc2ccccc2)n1 | 

IC50 (A549 [1]) | IC50 (MDA-MB-231) | IC50 (HCT-116) | IC50 (Alpha amylase [2]) | Compound | also measured
11.3 µM | 8.33 µM | 4.44 µM | 0.45 µM | O=C(N/N=C/c1ccc(O)cc1)c1csc(Nc2ccccc2)n1 | 
1.62 µM | 2.67 µM | 1.03 µM | 0.26 µM | COc1cc(/C=N/NC(=O)c2csc(Nc3ccc([N+](=O)[O-])cc3)n2)cc(OC)c1OC | Activity (A549 [3]): 22.34%; Activity (MCF-10A): Non-Toxic
1.23 µM | 2.54 µM | 1.11 µM |  | C#Cc1cccc(Nc2ncnc3cc(OCCOC)c(OCCOC)cc23)c1 [ERLOTINIB] | 
6.49 µM | 3.89 µM | 7.62 µM | 0.38 µM | O=C(N/N=C/c1ccccc1)c1csc(Nc2ccc(Cl)cc2)n1 | 
10 µM | > 25 µM | 14.9 µM | 0.46 µM | COc1ccc(Nc2nc(C(=O)N/N=C/c3cccc(N)c3)cs2)cc1 | 
6.32 µM | > 25 µM | 4.32 µM | 0.49 µM | COc1ccc(Nc2nc(C(=O)N/N=C/c3ccccc3)cs2)cc1 | 
4.98 µM | 5.56 µM | 5.99 µM | 0.39 µM | COc1ccc(/C=N/NC(=O)c2csc(Nc3ccc(O)cc3)n2)cc1OC | 
 |  |  |  | Cc1cccc(-c2nc3scc(-c4cccc([N+](=O)[O-])c4)n3n2)c1 | IC50 (Alpha amylase [13]): 1.1 µM
 |  |  |  | Cc1ccc([C@H]2C3CSCN3[C@@]3(C(=O)Nc4ccccc43)[C@]23N=C(c2ccccc2)OC3=O)cc1 (some centres undefined) | IC50 (Alpha amylase [12]): 1.76 µM
 |  |  |  | Cc1c(C(=O)N/N=C/c2ccc(O)c(O)c2)oc2ccccc12 | IC50 (Alpha amylase [12]): 1.24 µM
 |  |  |  | O=C1CS/C(=N\N=C\c2ccc(OS(=O)(=O)c3ccccc3[N+](=O)[O-])cc2)N1 | IC50 (Alpha amylase [12]): 42.8 µM
2.16 µM | 6.55 µM | 2.88 µM | 0.32 µM | COc1cc(/C=N/NC(=O)c2csc(Nc3ccc(Cl)cc3)n2)ccc1O | 
20.2 µM | 13.2 µM | 13.2 µM | 0.35 µM | C/C(=N\NC(=O)c1csc(Nc2ccc(Cl)cc2)n1)c1ccccn1 | 
 |  |  |  | Cc1ccc(-c2csc(N/N=C(/CSc3nnc4c(n3)[nH]c3ccccc34)c3ccc([N+](=O)[O-])cc3)n2)cc1 | IC50 (Alpha amylase [14]): 1.2 µM
 |  |  |  | O=[N+]([O-])c1ccc(/C(CSc2nnc3c(n2)[nH]c2ccccc23)=N\Nc2nc(-c3ccc([N+](=O)[O-])cc3)co2)cc1 | IC50 (Alpha amylase [14]): 1.2 µM
5.98 µM | > 25 µM | 6.43 µM | 0.48 µM | O=C(N/N=C/c1ccccc1)c1csc(Nc2ccccc2)n1 | 
2.63 µM | 6.77 µM | 2.96 µM | 0.29 µM | O=C(N/N=C/c1ccc(Cl)cc1)c1csc(Nc2ccc([N+](=O)[O-])cc2)n1 | Activity (A549 [3]): 28.62%; Activity (MCF-10A): Non-Toxic
5.09 µM | 5.6 µM | 5.43 µM | 0.39 µM | O=C(N/N=C/c1ccc(O)c(O)c1)c1csc(Nc2ccc(Cl)cc2)n1 | 
5.43 µM | 8.33 µM | 7.66 µM | 0.34 µM | O=C(N/N=C/c1ccc(F)cc1)c1csc(Nc2ccc([N+](=O)[O-])cc2)n1 | 

Compound | IC50 (A549 [1]) | IC50 (MDA-MB-231) | IC50 (HCT-116) | IC50 (Alpha amylase [2]) | also measured
COc1cc2c(c(OC)c1OC)-c1ccc(OC)c(=O)cc1[C@@H](NC(C)=O)CC2 [COLCHICINE] | 1.09 µM | 1.98 µM | 1.85 µM |  | 
